Laboratory results: article PMC3602187, “From Design to Screening: A New Antimicrobial Peptide Discovery Pipeline” (PLoS ONE, 2013)

tested on: Listeria innocua 33090; experiment: colony overlay assay of peptide-secreting E. coli clones (library screening and re-test); format: cell-based; design: key: higher activity group (H); equal activity group (E); lower activity group (L); conditions: library screening; selected colonies pooled by zone size; peptides identified by 454 sequencing, full-length sequences with minimum 20 reads
Protocol: For the in vivo production of AMPs, we have employed an E. coli expression system that relies on periplasmic-expression of recombinant peptides in a host cell that lacks the lpo membrane protein, thus releasing the peptides present in the periplasmic space outside the cells. When the producer cells are grown into colonies on a solid substrate, it leads to accumulation of the recombinant peptides around the colony and allows for easy library screening. The screening assay used in this study was a modified version of the standard agar diffusion method as previously described. Library-transformed E. coli colonies are overlaid with a tester strain and incubated overnight to allow for peptide expression and tester strain growth. Next day, the plates are inspected for the formation of clear growth inhibition zones around E. coli colonies, which is an indication of active AMP production by the host colony.
For the construction of Pln-423 mutant library in E. coli, the expression system that consists of a periplasmic-leaky E. coli strain JE5505 and the expression plasmid pFLAG-CTS was employed for direct screening of peptide activities. It should be noted here that this plasmid contains ompA secretion signal sequence and cleavage of this sequence results in a serine residue at the N-terminal of all mature peptides. A total of 1.0×10^5 colonies, approximately 8-fold coverage of the library, were screened against Listeria innocua 33090 in five separate screening experiments. L. innocua was previously deemed as a suitable indicator for pathogenic L. monocytogenes displaying similar bacteriocin sensitivity, therefore it was used as a surrogate strain throughout this study. The selection process involved two criteria; 1) the size of the each inhibition zone was compared to that of wild-type Pln-423 as a correlation to anti-listerial activity level, 2) when several colonies formed inhibition zones that are very similar in size and character, only a few from each group were selected. The colonies were pooled into three groups based on their activities, giving 43 clones in a higher activity group (H), 81 clones in an equal activity group (E), and 241 clones in a lower activity group (L). Their plasmids were extracted from each activity group and analyzed by both Sanger and 454 high-throughput sequencing to identify peptide sequences.
These clones were also re-tested by colony overlay assay to compare their activities to wild-type Pln-423 based on the size of the inhibition zone around each clone (Figure 2-A). Based on this assay, all ten plantaricin mutants formed larger inhibition zones (10.3±0.5 to 11.4±0.3 mm zone diameter) compared to wild-type Pln-423 (6.2±0.2 mm) against L. innocua 33090. Out of those ten, three clones have a single mutation and […] clones have two mutations and the remaining single clone has three mutations. […] Positions like Ser23, Ser27, His28, and Lys36 were commonly mutated with similar amino acids indicating their potential role on higher peptide activity.
The screening method used in this study was a modified version of the standard colony overlay method as previously described. All the chemicals and growth media supplements were obtained from either Sigma-Aldrich or Fisher Scientific unless otherwise stated. Transformed E. coli JE5505 cells were diluted to 3000–5000 cfu (determined empirically prior to screening by plating serial dilutions of E. coli suspensions of a known absorbance and counting the colonies after incubation) in 25 ml LB soft agar (0.8%, 45°C) per screening plate and poured into 150 mm petri dishes. Once the media was solidified, they were overlaid with 10 ml LB soft agar (45°C) and incubated at 37°C for 24 h for host-colony formation. Next day, these plates were re-overlaid with 10 ml TSB soft agar containing 1 mM IPTG and the indicator strain Listeria innocua ATCC 33090 (diluted to OD600 = 0.03). […]

Substance | activity group by size of inhibition zone compared to wild-type Pln-423
KYYGNGVTCGKHSCSVNWGQAFSCIVENLANFGHGKC* [GROUP L-UM-26] | L
KYYGNGVTCGKHSCSVNWGQAFSCLVSNLANFGHGKC* [Pep-2_6772] | L
KYYGNGVTCGKHSCSVNWGQAFSCMVSHLANGGHGKC* [Pep-2_9580] | L
KYYGNGVTCGKHSCSVNWGQAFSCNVSHLANFGHGKC* [Pep-1_45] | L
KYYGNGVTCGKHSCSVNWGQAFSCNVSHLANFGHGVC* [Pep-2_4888] | L and H
KYYGNGVTCGKHSCSVNWGQAFSCRVEHLANFGHGKC* [Pep-2_6013] | L
KYYGNGVTCGKHSCSVNWGQAFSCRVSHLANFGHGKC* [GROUP L-UM-13] | L
KYYGNGVTCGKHSCSVNWGQAFSCSASHLANFGHGKC* [Pep-1_53] | L
KYYGNGVTCGKHSCSVNWGQAFSCSFSHLANFGHGKC* [Pep-1_52] | L
KYYGNGVTCGKHSCSVNWGQAFSCSIHHLANFGHGKC* [Pep-2_5914] | L
KYYGNGVTCGKHSCSVNWGQAFSCSMSHLANFGHGKC* [GROUP L-UM-5] | L
KYYGNGVTCGKHSCSVNWGQAFSCSMSRLANFGHGKC* [Pep-2_6562] | L
KYYGNGVTCGKHSCSVNWGQAFSCSTSHLANFGHGKC* [GROUP E-UM-4] | E
KYYGNGVTCGKHSCSVNWGQAFSCSVAELANFGHGKC* [Pep-2_6350] | H
KYYGNGVTCGKHSCSVNWGQAFSCSVAHFANLGHGKC* [GROUP L-UM-30] | L
KYYGNGVTCGKHSCSVNWGQAFSCSVAHLANFGHGKC* [Pep-1_59] | L
KYYGNGVTCGKHSCSVNWGQAFSCSVCHMANFGHGKC* [Pep-2_7542] | L
KYYGNGVTCGKHSCSVNWGQAFSCSVDHLANFGHGHC* [Pep-2_11750] | H
KYYGNGVTCGKHSCSVNWGQAFSCSVDHLANFGHGKC* [GROUP H-UM-2] | H
KYYGNGVTCGKHSCSVNWGQAFSCSVEHLANFGHAKC* [Pep-2_6071] | E

Substance | activity group by size of inhibition zone compared to wild-type Pln-423
KYYGNGVTCGKHSCSVNWGQAFSCSVEHLANFGHGGC* [Pep-2_6077] | E and H
KYYGNGVTCGKHSCSVNWGQAFSCSVEHLANFGHGHC* [Pep-2_6073] | E
KYYGNGVTCGKHSCSVNWGQAFSCSVEHLANFGHGKC* [Pep-1_56] | E and H
KYYGNGVTCGKHSCSVNWGQAFSCSVEHLANFGHIKC* [Pep-2_6070] | L
KYYGNGVTCGKHSCSVNWGQAFSCSVEHLANFGHNKC* [Pep-2_11318] | H
KYYGNGVTCGKHSCSVNWGQAFSCSVEHLANFGYGKC* [Pep-2_6063] | E
KYYGNGVTCGKHSCSVNWGQAFSCSVFHLANFGHGLC* [Pep-2_12076] | L
KYYGNGVTCGKHSCSVNWGQAFSCSVGVLANFGHMHC* [GROUP L-UM-19] | L
KYYGNGVTCGKHSCSVNWGQAFSCSVHHLANFGHGKC* [Pep-1_55] | L
KYYGNGVTCGKHSCSVNWGQAFSCSVHHLANYGHGKC* [Pep-2_5943] | L
KYYGNGVTCGKHSCSVNWGQAFSCSVHRLANFGHGKC* [Pep-2_5917] | L
KYYGNGVTCGKHSCSVNWGQAFSCSVIALANFGHGKC* [Pep-2_7000] | L
KYYGNGVTCGKHSCSVNWGQAFSCSVIHLANFGHGSC* [Pep-2_11968] | H
KYYGNGVTCGKHSCSVNWGQAFSCSVLHLANFGHGKC* [GROUP L-UM-20] | L
KYYGNGVTCGKHSCSVNWGQAFSCSVMHLANFGHGKC* [GROUP L-UM-16] | L
KYYGNGVTCGKHSCSVNWGQAFSCSVNVLANFGHGKC* [Pep-2_6891] | L
KYYGNGVTCGKHSCSVNWGQAFSCSVRHLANFGHGEC* [Pep-2_11857] | L
KYYGNGVTCGKHSCSVNWGQAFSCSVSALANFGHGRC* [Pep-2_7045] | L
KYYGNGVTCGKHSCSVNWGQAFSCSVSDLANFGHGKC* [Pep-1_62] | L
KYYGNGVTCGKHSCSVNWGQAFSCSVSHFANFGHGKC* [GROUP E-UM-8] | E

Substance | activity group by size of inhibition zone compared to wild-type Pln-423
KYYGNGVTCGKHSCSVNWGQAFSCSVSHLA*FGHGKC* [GROUP L-UM-33] | L
KYYGNGVTCGKHSCSVNWGQAFSCSVSHLAAFGHGSC* [Pep-2_11993] | H
KYYGNGVTCGKHSCSVNWGQAFSCSVSHLAEFGHGKC* [Pep-1_80] | L
KYYGNGVTCGKHSCSVNWGQAFSCSVSHLAKFGHGKC* [Pep-1_81] | L
KYYGNGVTCGKHSCSVNWGQAFSCSVSHLANFGEGKC* [Pep-1_98] | H
KYYGNGVTCGKHSCSVNWGQAFSCSVSHLANFGFGWC* [Pep-2_12334] | L
KYYGNGVTCGKHSCSVNWGQAFSCSVSHLANFGHAKC* [Pep-1_107] | L
KYYGNGVTCGKHSCSVNWGQAFSCSVSHLANFGHDKC* [GROUP E-UM-9] | E
KYYGNGVTCGKHSCSVNWGQAFSCSVSHLANFGHGCC* [GROUP L-UM-31] | L
KYYGNGVTCGKHSCSVNWGQAFSCSVSHLANFGHGEC* [Pep-1_110] | H
KYYGNGVTCGKHSCSVNWGQAFSCSVSHLANFGHGKC* [GROUP E-UM-11] | E
KYYGNGVTCGKHSCSVNWGQAFSCSVSHLANFGHGKC* [GROUP L-UM-27] | L
KYYGNGVTCGKHSCSVNWGQAFSCSVSHLANFGHGLC* [Pep-1_112] | L
KYYGNGVTCGKHSCSVNWGQAFSCSVSHLANFGHGRC* [GROUP L-UM-25] | L
KYYGNGVTCGKHSCSVNWGQAFSCSVSHLANFGHGSC* [Pep-1_111] | L and E
KYYGNGVTCGKHSCSVNWGQAFSCSVSHLANFGHGWC* [Pep-1_114] | L
KYYGNGVTCGKHSCSVNWGQAFSCSVSHLANFGHNWC* [Pep-2_12339] | E
KYYGNGVTCGKHSCSVNWGQAFSCSVSHLANFGHRAC* [Pep-2_11153] | L
KYYGNGVTCGKHSCSVNWGQAFSCSVSHLANFGIGLC* [GROUP L-UM-3] | L
KYYGNGVTCGKHSCSVNWGQAFSCSVSHLANFGKGKC* [GROUP L-UM-11] | L
